{
  "source": "patent US20050038000A1",
  "about": "“Methods and compositions for the treatment of amyloid-and epileptogenesis-associated diseases” (priority 2003, published 2005)",
  "system": "spontaneous recurrent seizures",
  "assay": "\"spontaneous recurrent seizures\" (SRS) model of epilepsy",
  "type": "in vivo",
  "settings": "rat, 20 mg/kg/day i.v. for 10 day",
  "protocol": "The “spontaneous recurrent seizures” (SRS) model of epilepsy is used to evaluate candidate compounds in a model for Phase 1 epileptogenesis (see, e.g., Mello, E. et al., Epilepsia (1993) 34:985; Cavalheiro, J. et al., Epilepsia (1991) 32:778). In the SRS model, an adult male Sprague-Dawley rat (c. 260 g) is given kainic acid by injection ([…].). Within 25 minutes, the animal enters status epilepticus, which typically lasts for 15-20 hours (although about 10% of animals die at this stage). The rat is allowed to spontaneously recover and is given food and water ad lib. and maintained on a 12 hour light/dusk cycle. Beginning on about day 13-15, the rats develop spontaneous recurrent seizures, which occur at the rate of about 4-5 per week. The rats are videotaped 8 hours per day, and the videotapes are reviewed for behavioral seizures (including head nodding, forelimb clonus, and rearing), which are counted. The animals are watched for a few weeks to a few months (2 weeks to three months), permitting evaluation of a sufficient number of seizures. An experimental compound for evaluation can be administered at either of two times: Time 1, on Day 1, after the cessation of status epilepticus but before the onset of SRS; or Time 2, on Day 30, when the rats have been experiencing SRS for about two weeks. […]",
  "data": [
    {"smiles": "O=C1NC(=O)C(c2ccccc2)(c2ccccc2)N1", "note": "[phenytoin]", "values": [
      {"measurement": "preventing the onset of seizures", "setting": "administered at Time 1 (Day 1, before onset of SRS)", "result": "ineffective"},
      {"measurement": "effective at decreasing seizure frequency by 50% or more", "setting": "administered at Time 2 (Day 30, established SRS)", "result": 75, "unit": "%"}
    ]}
  ]
}
